“And” between values parts separate entries of the source, which are not always exact repeats. Identical values can stand only once. Inconclusive results and toxic doses are left out. Rule for the calls: active = survival T/C of 150% or more; inactive = T/C below 125% in these data.
Test system: P388 leukemia ip, CD2F1 mice, survival T/C
Experiment: NCI In Vivo Anticancer Drug Screen. Data for tumor model P388 Leukemia (intraperitoneal) in CD2F1 (CDF1) mice
Details: endpoint: median survival time, higher = longer survival
Method in brief: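 Mice carrying the transplanted tumor received test compound or vehicle. Survival was recorded in each group, and the value is the treated-group measurement divided by that of the vehicle-treated control group.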

[1] = dose: 50.0 mg/kg/injection, schedule: Q01DX009 (ip), vehicle: saline
[2] = dose: 60.0 mg/kg/injection, schedule: Q01DX005 (ip), vehicle: Klucel (hydroxypropylcellulose) (HPC)
[3] = dose: 100.0 mg/kg/injection, schedule: Q01DX009 (ip), vehicle: saline
[4] = dose: 120.0 mg/kg/injection, schedule: Q01DX005 (ip), vehicle: Klucel (hydroxypropylcellulose) (HPC)
[5] = dose: 200.0 mg/kg/injection, schedule: Q01DX009 (ip), vehicle: saline
[6] = dose: 240.0 mg/kg/injection, schedule: Q01DX005 (ip), vehicle: Klucel (hydroxypropylcellulose) (HPC)
[7] = dose: 50.0 mg/kg/injection, schedule: Q01DX009 (ip), vehicle: saline with Tween-80
[8] = dose: 100.0 mg/kg/injection, schedule: Q01DX009 (ip), vehicle: saline with Tween-80
[9] = dose: 60.0 mg/kg/injection, schedule: Q01DX005 (ip), vehicle: saline with Tween-80
[10] = dose: 120.0 mg/kg/injection, schedule: Q01DX005 (ip), vehicle: saline with Tween-80
[11] = dose: 240.0 mg/kg/injection, schedule: Q01DX005 (ip), vehicle: saline with Tween-80
[12] = dose: 100.0 mg/kg/injection, schedule: Q04DX003 (ip), vehicle: saline with Tween-80
[13] = dose: 200.0 mg/kg/injection, schedule: Q04DX003 (ip), vehicle: saline with Tween-80
[14] = dose: 400.0 mg/kg/injection, schedule: Q04DX003 (ip), vehicle: saline with Tween-80
[15] = dose: 50.0 mg/kg/injection, schedule: Q01DX001 (ip), vehicle: Klucel (hydroxypropylcellulose) (HPC)
[16] = dose: 100.0 mg/kg/injection, schedule: Q01DX001 (ip), vehicle: Klucel (hydroxypropylcellulose) (HPC)
[17] = dose: 200.0 mg/kg/injection, schedule: Q01DX001 (ip), vehicle: Klucel (hydroxypropylcellulose) (HPC)
[18] = dose: 100.0 mg/kg/injection, schedule: Q04DX003 (ip), vehicle: saline
[19] = dose: 200.0 mg/kg/injection, schedule: Q04DX003 (ip), vehicle: saline

Measured: T/C

CCOC(=O)C1(C)OC1c1ccc([N+](=O)[O-])cc1 (configuration not stated)
inactive: dose: 100.0 mg/kg/injection, schedule: Q04DX003 (ip), vehicle: Klucel (hydroxypropylcellulose) (HPC) 97 % of control | dose: 200.0 mg/kg/injection, schedule: Q04DX003 (ip), vehicle: Klucel (hydroxypropylcellulose) (HPC) 94 % of control | dose: 400.0 mg/kg/injection, schedule: Q04DX003 (ip), vehicle: Klucel (hydroxypropylcellulose) (HPC) 100 % of control

CC1(C)CC(O)C2(CO)C(C1)C1=CCC3C4(C)CCC(O)C(C)(C)C4CCC3(C)C1(C)C(O)C2O (configuration not stated)
inactive: dose: 5.25 mg/kg/injection, schedule: Q01DX005 (ip), vehicle: Klucel (hydroxypropylcellulose) (HPC) 100 % of control | dose: 10.5 mg/kg/injection, schedule: Q01DX005 (ip), vehicle: Klucel (hydroxypropylcellulose) (HPC) 103 % of control | dose: 21.0 mg/kg/injection, schedule: Q01DX005 (ip), vehicle: Klucel (hydroxypropylcellulose) (HPC) 94 % of control | dose: 42.0 mg/kg/injection, schedule: Q01DX005 (ip), vehicle: Klucel (hydroxypropylcellulose) (HPC) 99 % of control

COc1cc2c(cc1OC)C1Cc3ccc(OC)c(OC)c3CN1CC2 (configuration not stated)
inactive: [1] 104 % of control | [2] 100 % of control | [3] 101 % of control | [4] 109 % of control | [5] 99 % of control | [6] 108 % of control

CN1C(=O)N(C)C2(C(=O)c3cccc4cccc2c34)C1=O (configuration not stated)
inactive: dose: 50.0 mg/kg/injection, schedule: Q01DX009 (ip), vehicle: distilled water + alcohol 100 % of control | dose: 100.0 mg/kg/injection, schedule: Q01DX009 (ip), vehicle: distilled water + alcohol 94 % of control | dose: 200.0 mg/kg/injection, schedule: Q01DX009 (ip), vehicle: distilled water + alcohol 100 % of control

Cc1cnc(C)c2ccccc12
inactive: [7] 109 % of control | [8] 117 % of control

C[CH2][Ge]([CH2]C)[CH2]/C(C)=C(/C)[CH2][Ge]([CH2]C)[CH2]C
inactive: [7] 100 % of control | [8] 108 % of control

O=C(Nc1ccc(Cl)cc1)Nc1nnc2nc(CC(=O)c3cccc([N+](=O)[O-])c3Cl)c(=O)[nH]n12
inactive: [9] 99 % of control | [10] 101 % of control | [11] 100 % of control

Cc1cc2nc(CN(CCO)CCO)[nH]c2cc1C
inactive: dose: 50.0 mg/kg/injection, schedule: Q01DX005 (ip), vehicle: saline 100 % of control | dose: 100.0 mg/kg/injection, schedule: Q01DX005 (ip), vehicle: saline 98 % of control | dose: 200.0 mg/kg/injection, schedule: Q01DX005 (ip), vehicle: saline 98 % of control

CCOC1(C)OC2OC(COCc3ccccc3)C(OCc3ccccc3)C(OCc3ccccc3)C2O1 (configuration not stated)
inactive: dose: 12.5 mg/kg/injection, schedule: Q01DX009 (ip), vehicle: other 99 % of control | dose: 25.0 mg/kg/injection, schedule: Q01DX009 (ip), vehicle: other 100 % of control | dose: 50.0 mg/kg/injection, schedule: Q01DX009 (ip), vehicle: other 100 % of control | dose: 100.0 mg/kg/injection, schedule: Q01DX009 (ip), vehicle: other 89 % of control | dose: 200.0 mg/kg/injection, schedule: Q01DX009 (ip), vehicle: other 98 % of control

CC(c1ccccc1)N1COc2ccc3ccccc3c2C1 (configuration not stated)
inactive: [12] 95 % of control | [13] 95 % of control | [14] 95 % of control

Cc1cc(=O)n2c(nc3cc(C(=O)c4ccccc4)ccc32)s1
inactive: [15] 101 % of control | [16] 98 % of control | [17] 100 % of control

COC1=CC2C3Cc4c(-c5cc(OC)c(O)c6c5CC5C7C=C(OC)C(=O)CC67CCN5C)cc(OC)c(O)c4C2(CCN3C)CC1=O (configuration not stated)
inactive: [7] 97 % of control | [1] 105 % of control | [8] 102 % of control | [3] 94 % of control | [12] 104 % of control | [18] 95 % of control | [5] 105 % of control | [13] 106 % of control | [19] 93 % of control | [14] 95 % of control | dose: 400.0 mg/kg/injection, schedule: Q04DX003 (ip), vehicle: saline 96 % of control

Nc1nnc2n(N)cnn12
inactive: dose: 100.0 mg/kg/injection, schedule: Q04DX002 (ip), vehicle: water 114 % of control | dose: 200.0 mg/kg/injection, schedule: Q04DX002 (ip), vehicle: water 109 % of control | dose: 400.0 mg/kg/injection, schedule: Q04DX002 (ip), vehicle: water 106 % of control

COc1ccc(C(c2cc3c(cc2O)OCO3)N2CCOCC2)cc1OC (configuration not stated)
inactive: [9] 101 % of control | [10] 109 % of control | [11] 111 % of control

O=C1Nc2ccccc2C1=Nc1cccc2cnccc12
inactive: [2] 100 % of control | [4] 95 % of control | [6] 98 % of control

COc1ccc(C(=O)c2coc3cc4c(cc23)OCO4)c(O)c1
inactive: [15] 88 % of control | [16] 88 % of control | [17] 88 % of control

COc1cccc2c1C(=O)c1c(O)c3c(c(O)c1C2=O)CC(O)(C(C)=O)CC3OC1CC(NCC2(O)OCC(O)C(OC3OC(CO)C(O)C(O)C3O)C2O)C(O)C(C)O1 (configuration not stated)
inactive: dose: 1.56 mg/kg/injection, schedule: Q04DX003 (ip), vehicle: water 100 % of control | dose: 3.12 mg/kg/injection, schedule: Q04DX003 (ip), vehicle: water 98 % of control and 99 % of control | dose: 3.13 mg/kg/injection, schedule: Q04DX003 (ip), vehicle: water 95 % of control | dose: 6.25 mg/kg/injection, schedule: Q04DX003 (ip), vehicle: water 99 % of control and 102 % of control and 103 % of control | dose: 12.5 mg/kg/injection, schedule: Q04DX003 (ip), vehicle: water 100 % of control | dose: 25.0 mg/kg/injection, schedule: Q04DX003 (ip), vehicle: water 105 % of control and 108 % of control and 119 % of control | dose: 50.0 mg/kg/injection, schedule: Q04DX003 (ip), vehicle: water 119 % of control

O=S1(=O)CCCCC1
inactive: dose: 50.0 mg/kg/injection, schedule: Q04DX003 (ip), vehicle: saline 100 % of control | [18] 100 % of control | [19] 110 % of control

C=CC(=O)N/C(N)=N\C(N)=O
inactive: dose: 3.0 mg/kg/injection, schedule: Q01DX005 (ip), vehicle: saline 110 % of control | dose: 6.0 mg/kg/injection, schedule: Q01DX005 (ip), vehicle: saline 112 % of control | dose: 12.0 mg/kg/injection, schedule: Q01DX005 (ip), vehicle: saline 113 % of control | dose: 12.5 mg/kg/injection, schedule: Q01DX005 (ip), vehicle: saline 113 % of control

CCCCCCCCCCCCCCCC[n+]1ccc(C(N)=O)cc1
inactive: dose: 3.0 mg/kg/injection, schedule: Q01DX009 (ip), vehicle: saline with Tween-80 109 % of control | dose: 6.0 mg/kg/injection, schedule: Q01DX009 (ip), vehicle: saline with Tween-80 118 % of control | dose: 12.0 mg/kg/injection, schedule: Q01DX009 (ip), vehicle: saline with Tween-80 109 % of control

CC(=O)OC1C(=O)OCC1C(=O)N1Cc2cc3ccccc3nc2C1 (configuration not stated)
inactive: dose: 100.0 mg/kg/injection, schedule: Q01DX001 (ip), vehicle: saline with Tween-80 104 % of control | dose: 200.0 mg/kg/injection, schedule: Q01DX001 (ip), vehicle: saline with Tween-80 101 % of control | dose: 400.0 mg/kg/injection, schedule: Q01DX001 (ip), vehicle: saline with Tween-80 105 % of control

COc1cc2c(cc1O)N=C[C@@H]1CCC(O)N1C2=O (mixture of isomers)
inactive: dose: 1.0 mg/kg/injection, schedule: Q01DX009 (ip), vehicle: saline 96 % of control | dose: 2.0 mg/kg/injection, schedule: Q01DX009 (ip), vehicle: saline 104 % of control
